Test results: ChEMBL document CHEMBL3045091, “Synthesis and antimicrobial activities of some new 5-((3-(aryl)-1-phenyl-1H-pyrazol-4-yl)methylene)-3-phenylthiazolidine-2,4-diones” (2012)
Converted amounts (≈) assume the structure as drawn. The source made the active and inactive calls. The calls are words filed in the database; no cut-off is given here.

How the values were obtained:
Staphylococcus aureus [1] = test: Antibacterial activity against Staphylococcus aureus MTCC 96 at 4 mg/ml after 24 hr by agar well diffusion method; format: functional; details: MTCC 96, 24 h, read-out: DIZ
Aspergillus flavus = test: Antifungal activity against Aspergillus flavus after 7 days by poisoned food technique; format: functional
Aspergillus niger = test: Antifungal activity against Aspergillus niger after 7 days by poisoned food technique; format: functional
Staphylococcus aureus [2] = test: Antibacterial activity against Staphylococcus aureus MTCC 96 after 24 hr by macro dilution tube method; format: functional; details: MTCC 96, 24 h
Bacillus subtilis [3] = test: Antibacterial activity against Bacillus subtilis MTCC 121 after 24 hr by macro dilution tube method; format: functional; details: MTCC 121, 24 h
Bacillus subtilis [4] = test: Antibacterial activity against Bacillus subtilis MTCC 121 at 4 mg/ml after 24 hr by agar well diffusion method; format: functional; details: MTCC 121, 24 h, read-out: DIZ
Escherichia coli = test: Antibacterial activity against Escherichia coli MTCC 1652 at 4 mg/ml after 24 hr by agar well diffusion method; format: functional, organism-based
Pseudomonas aeruginosa [5] = details: MTCC 741, 4 mg/ml
Description: (§1) Antibacterial activity against Pseudomonas aeruginosa MTCC 741 at 4 mg/ml after 24 hr by agar well diffusion method

Pseudomonas aeruginosa [6] = test: microbe, parasite or virus in culture; details: MTCC 741, 24 h, read-out: DIZ
Description: as §1

Compound	zone of inhibition at 4000 µg/mL (Staphylococcus aureus [1])	growth inhibition (GI) (Aspergillus flavus)	growth inhibition (GI) (Aspergillus niger)	MIC (Staphylococcus aureus [2])	MIC (Bacillus subtilis [3])	zone of inhibition at 4000 µg/mL (Bacillus subtilis [4])	diameter of the inhibition zone (DIZ) (Escherichia coli)	DIZ (Pseudomonas aeruginosa [5])	zone of inhibition at 4000 µg/mL (Pseudomonas aeruginosa [6])
O=C1S/C(=C\c2cn(-c3ccccc3)nc2-c2ccc(F)cc2)C(=O)N1c1ccccc1	19.3 mm	55.5%	55.5%	128 µg/mL (≈ 290 µM)	32 µg/mL (≈ 72.5 µM)	20.6 mm	inactive	inactive	
O=C1S/C(=C\c2cn(-c3ccccc3)nc2-c2ccc(Cl)cc2)C(=O)N1c1ccccc1	20.6 mm	61.1%	55.5%	64 µg/mL (≈ 140 µM)	128 µg/mL (≈ 280 µM)	18.3 mm	inactive	inactive	
O=C1S/C(=C\c2cn(-c3ccccc3)nc2-c2cccs2)C(=O)N1c1ccccc1	22.3 mm	33.3%	50%	32 µg/mL (≈ 74.5 µM)	32 µg/mL (≈ 74.5 µM)	21.6 mm	inactive	inactive	
O=C1S/C(=C\c2cn(-c3ccccc3)nc2-c2ccc(O)cc2)C(=O)N1c1ccccc1	20.3 mm	44.4%	50%	64 µg/mL (≈ 146 µM)	128 µg/mL (≈ 291 µM)	18.3 mm	inactive	inactive	
Cc1ccc(-c2nn(-c3ccccc3)cc2/C=C2\SC(=O)N(c3ccccc3)C2=O)cc1	18.3 mm	50%	44.4%	128 µg/mL (≈ 293 µM)	64 µg/mL (≈ 146 µM)	19.6 mm	inactive	inactive	
O=C1S/C(=C\c2cn(-c3ccccc3)nc2-c2ccc(Br)cc2)C(=O)N1c1ccccc1	21.6 mm	55.5%	38.8%	32 µg/mL (≈ 63.7 µM)	32 µg/mL (≈ 63.7 µM)	20.6 mm	inactive	inactive	
COc1ccc(-c2nn(-c3ccccc3)cc2/C=C2\SC(=O)N(c3ccccc3)C2=O)cc1	18.6 mm	66.6%	50%	128 µg/mL (≈ 282 µM)	128 µg/mL (≈ 282 µM)	16.6 mm	inactive	inactive	
O=C1S/C(=C\c2cn(-c3ccccc3)nc2-c2ccc([N+](=O)[O-])cc2)C(=O)N1c1ccccc1	20.6 mm	61.1%	50%	64 µg/mL (≈ 137 µM)	128 µg/mL (≈ 273 µM)	18.3 mm	inactive	inactive	
OC(Cn1cncn1)(Cn1cncn1)c1ccc(F)cc1F [FLUCONAZOLE]		77.7%	81.1%						
O=C(O)c1cn(C2CC2)c2cc(N3CCNCC3)c(F)cc2c1=O [CIPROFLOXACIN]	26 mm			5 µg/mL (≈ 15.1 µM)	5 µg/mL (≈ 15.1 µM)	24 mm			22 mm
O=C1S/C(=C\c2cn(-c3ccccc3)nc2-c2ccccc2)C(=O)N1c1ccccc1	18.6 mm	50%	55.5%	128 µg/mL (≈ 302 µM)	64 µg/mL (≈ 151 µM)	19.3 mm	inactive	inactive	
